± gives the expanded uncertainty stated by the source.
Details: 298.15 K, 101.8 kPa, Liquid; for viscosity: Falling or rolling sphere viscometry; for mass density: Vibrating tube method

Compound	viscosity [mPa·s]	mass density [kg/m3]
CCO [ethanol]	1.125 ± 0.024	785.07 ± 1
C=C1CC[C@H]2C[C@@H]1C2(C)C [(1S,5S)-6,6-dimethyl-2-methylenebicyclo[3.1.1]heptane]	1.616 ± 0.034	866.93 ± 1
C=C(C)[C@H]1CC=C(C)CC1 [(R)-1-methyl-4-(1-methylethenyl)cyclohexene]	0.8599 ± 0.022	838.59 ± 1.6
C=CC(C)(O)CCC=C(C)C (stereo unspecified) [3,7-dimethyl-1,6-octadien-3-ol]	4.349 ± 0.092	857.28 ± 1
CC1=CCC(C(C)C)=CC1 [1-methyl-4-(1-methylethyl)-1,4-cyclohexadiene]	1.144 ± 0.031	844.9 ± 1.9
C=C(C)[C@@H]1CC=C(C)C(=O)C1 [l-carvone]	2.456 ± 0.052	958.79 ± 1
C=CC(C)(CCC=C(C)C)OC(C)=O (stereo unspecified) [linalool acetate]	2.291 ± 0.049	898.64 ± 1
CC(C)=CCCC(C)=CC=O [3,7-dimethyl-2,6-octadienal (cis+trans)]	2.019 ± 0.043	883.42 ± 1

Source: the NIST ThermoML archive (doi:10.1016/j.jct.2013.11.026)
